For orientation: bioavailability means the share of a dose that reaches the circulation, judged against a reference dose that is usually intravenous. By IC50 is commonly meant the concentration that inhibits the measured activity by half. A high value points to lower potency.

One series can be described thus: in vivo. The conditions noted are these: rat, in vivo; for bioavailability: po. An excerpt: Then changes in the blood level of each medicament were monitored with the lapse of time by using liquid chromatography.
The target in series [1] is T1, ACE (Rattus norvegicus, UniProt P47820).
T1 construct: membrane fraction prepared from rat lung; from tissue; host or cells: rat lung, membrane fraction (method of Wu-Wong et al.)
T1 sequence (P47820 36-1313): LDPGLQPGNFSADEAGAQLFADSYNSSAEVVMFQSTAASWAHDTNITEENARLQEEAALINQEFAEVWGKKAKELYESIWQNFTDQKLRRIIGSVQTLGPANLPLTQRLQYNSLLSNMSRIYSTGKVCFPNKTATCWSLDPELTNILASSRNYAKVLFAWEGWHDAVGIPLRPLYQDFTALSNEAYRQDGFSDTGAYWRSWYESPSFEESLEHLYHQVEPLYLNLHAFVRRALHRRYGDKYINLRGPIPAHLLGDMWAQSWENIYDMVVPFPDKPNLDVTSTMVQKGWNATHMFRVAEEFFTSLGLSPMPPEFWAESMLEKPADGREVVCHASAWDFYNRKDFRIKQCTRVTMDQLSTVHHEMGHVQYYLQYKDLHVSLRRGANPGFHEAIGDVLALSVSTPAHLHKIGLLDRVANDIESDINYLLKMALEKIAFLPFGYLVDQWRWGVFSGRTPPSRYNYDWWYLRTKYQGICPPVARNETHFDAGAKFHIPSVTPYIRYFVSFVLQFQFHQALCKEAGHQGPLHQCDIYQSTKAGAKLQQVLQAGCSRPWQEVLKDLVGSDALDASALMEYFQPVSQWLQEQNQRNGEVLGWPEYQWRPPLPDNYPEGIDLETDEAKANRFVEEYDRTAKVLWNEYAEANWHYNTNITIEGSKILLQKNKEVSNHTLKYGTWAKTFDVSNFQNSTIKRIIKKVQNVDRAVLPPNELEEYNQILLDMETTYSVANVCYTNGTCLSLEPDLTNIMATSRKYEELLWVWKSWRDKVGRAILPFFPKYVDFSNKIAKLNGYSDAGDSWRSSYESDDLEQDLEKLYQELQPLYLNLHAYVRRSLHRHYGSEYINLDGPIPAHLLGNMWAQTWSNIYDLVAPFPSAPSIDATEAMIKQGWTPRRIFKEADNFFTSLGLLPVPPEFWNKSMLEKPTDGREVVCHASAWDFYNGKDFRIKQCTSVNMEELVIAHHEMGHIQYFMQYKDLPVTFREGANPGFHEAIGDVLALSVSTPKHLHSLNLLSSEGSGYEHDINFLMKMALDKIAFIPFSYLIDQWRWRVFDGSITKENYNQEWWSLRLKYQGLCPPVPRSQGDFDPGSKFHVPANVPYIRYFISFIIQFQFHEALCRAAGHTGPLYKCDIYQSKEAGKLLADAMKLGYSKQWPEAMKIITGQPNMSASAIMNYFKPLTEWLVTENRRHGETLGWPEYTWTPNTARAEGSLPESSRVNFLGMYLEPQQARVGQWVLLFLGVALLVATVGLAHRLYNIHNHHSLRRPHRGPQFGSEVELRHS
Kind of series: ACE inhibition activity (Experiment E-1). Type of series: biochemical. The conditions noted are these: rat lung membrane fraction, pH 8.3. The method, then: As a source of the enzyme ACE, a membrane fraction prepared from rat lung in accordance with the method of Wu-Wong et al. (Characterization of Endthelin Converting Enzyme in Rat Lung., Jinshyum R. Wu-Wong, Gerald, P. Budzik, Edward M. Devine and Terry J. Opgenorth, Biochem. Biophys. Res. Commun., 1990, 171, 1291-1296.) was used. The ACE activity was determined with the use of a modification (modified to a borate buffer pH 8.3) of the method of Cushman and Cheung (Spectrophotometric Assay and Properties of the Angiotensin-Converting Enzyme of Rabbit Lung., Cushman D. W. and Cheung H. S., 1971, 20, 1637-1648.). Now the procedure will be briefly described.
In the presence of ACE, the hippurate liberated from hippuryl-histidyl-leucine (Hippuryl-His-Leu (PeptideInstitute Inc., Japan)) was extracted with ethyl acetate and then the absorbance was measured at a wavelength of 228 nm.
(§1) To determine the NEP inhibition activity and the ACE inhibition activity, the inhibitor was added to the assay systems of both enzyme activities as described above in such a manner as to give the final concentrations of 1, 3, 10, 30, 100, […] and 1000 nM and inhibition curves were prepared. Then the concentration at which 50% inhibition was achieved was taken as IC50.

The target in series [2] is T2, NEP (Rattus norvegicus, UniProt P07861).
T2 sequence (P07861 1-750): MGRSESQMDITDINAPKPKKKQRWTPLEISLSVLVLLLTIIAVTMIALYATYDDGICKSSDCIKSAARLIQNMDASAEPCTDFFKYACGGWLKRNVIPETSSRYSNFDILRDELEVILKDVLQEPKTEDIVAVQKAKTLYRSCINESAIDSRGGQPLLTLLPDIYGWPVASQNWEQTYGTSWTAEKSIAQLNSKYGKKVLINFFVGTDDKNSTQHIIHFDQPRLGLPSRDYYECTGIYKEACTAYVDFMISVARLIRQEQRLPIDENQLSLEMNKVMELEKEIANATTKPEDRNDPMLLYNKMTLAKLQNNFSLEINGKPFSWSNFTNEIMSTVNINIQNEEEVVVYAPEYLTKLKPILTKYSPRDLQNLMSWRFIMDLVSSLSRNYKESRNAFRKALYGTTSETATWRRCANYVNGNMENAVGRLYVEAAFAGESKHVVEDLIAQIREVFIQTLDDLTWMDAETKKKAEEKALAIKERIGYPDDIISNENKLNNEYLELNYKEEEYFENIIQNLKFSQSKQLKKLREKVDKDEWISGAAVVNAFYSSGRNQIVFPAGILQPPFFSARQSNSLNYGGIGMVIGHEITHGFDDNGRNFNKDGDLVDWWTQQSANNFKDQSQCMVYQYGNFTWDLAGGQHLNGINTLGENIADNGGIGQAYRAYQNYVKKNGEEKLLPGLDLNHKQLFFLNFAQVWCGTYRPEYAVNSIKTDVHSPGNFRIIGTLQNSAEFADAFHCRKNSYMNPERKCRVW
Description: NEP inhibition activity (Experiment E-1). Format: biochemical. Further details: membrane fraction prepared from rat renal cortex; from tissue; host or cells: rat renal cortex, membrane fraction (method of Booth and Kenny). The conditions noted are these: rat renal cortex membrane fraction. The protocol:
As a source of the enzyme NEP, a membrane fraction prepared from rat renal cortex in accordance with the method of Booth and Kenny (A Rapid Method for the Purification of Microvilli from Rabbit Kidney., Andrew G. Booth and A. John Kenny, Biochem. j., 1974, 142,575-581.) was employed. The NEP activity was determined in accordance with the method of Orlowsky and Wilk (Purification and Specificity of a Membrane-Bound Metalloendpeptidase from Bovine Pituitaries., Marian Orlowsky and Shrwin Wilk, Biochemistry, 1981, 20, 4942-4950.). Now the procedure will be briefly described.
As a substrate, benzoyl-glycyl-arginyl-arginyl-2-naphthylamide (benzoyl-Gly-Arg-Arg-2 naphthylamide (Nova Biochem, Switzerland)) was used. In the presence of an NEP enzyme preparation and excessive leucine aminopeptidase (sigma chemical Co., U.S.A.), the liberated naphthylamine was made to undergo color development with first garnet (Sigma chemical Co., U.S.A.), followed by the measurement of the absorbance at a wavelength of 540 nm.
as §1

In series [3] the target is T1, ACE. Description: ACE inhibition activity using rat lung (Experiment B-2). Conditions: rat lung membrane fraction, borate buffer. Type of series: biochemical. The protocol:
The ACE inhibition activity was determined by using a membrane fraction prepared from rat lung in accordance with the method of Wu-Wong et al. (Characterization of Endthelin Converting Enzyme in Rat Lung., Junshyum R. Wu-Wong, Gerald, P. Budzik, Edward M. Devine and Terry J. Opgenorth, Biochem. Biophys. Res. Commun., 1990, 171, 1291-1296.).
The ACE activity was determined with the use of a modification (modified to a borate buffer, p11 8.3) of the method of Cushman and Cheung (Spectrophotometric Assay and Properties of the Angiotensin-Converting Enzyme of Rabbit Lung., Cushman, D. W. and Cheung H. S., 1971, 20, […].).
In the presence of ACE, the hippurate liberated from hippuryl-histidine-leucine (Hippuryl-His-Leu (PeptideInstitute Inc., Japan)) was extracted with ethyl acetate and then the absorbance was measured at a wavelength of 228 nm.
With respect to the ACE inhibition activity, the inhibitor was added to the reaction system as described above in such a manner as to give the final concentrations of 1, 3, 10, 30, 100, 300 and 1000 nM, an inhibition curve was prepared, and then the concentration at which 50% inhibition was achieved was taken as IC50.

Series [4] has as its target T2, NEP. Description: NEP inhibition activity using rat renal cortex (Experiment B-1). Type of series: biochemical. On the set-up: membrane fraction prepared from rat renal cortex; from tissue; host or cells: rat renal cortex, membrane fraction (method of Booth and Kenny). Conditions: rat renal cortex membrane fraction. The protocol:
The NEP activity was determined by using a membrane fraction prepared from rat renal cortex in accordance with the method of Booth and Kenay (A Rapid Metod for the Purificaton of Microvilli from Rabbit Kidney., Andrew G. Booth and A. John Kenny, Biochem j., 1974, 142, 575-581.).
The NEP activity was determined by the following manner in accordance with the method of Orlowsky and Wilk (Purification and Specificity of a Membrane-Bound Metalloendpeptldase from Bovine Pituitaries., Marian Orlowsky and Shrwin Wilk, Biochemistry, 1981, 20, 4942-4950.).
As a substrate, benzoyl-glycine-arginine-arginine-2-naphthylamide (benzoyl-Gly-Arg-Arg-2-naphthylamide (Nova Biochem, Switzerland)) was used. In the presence of an NEP enzyme preparation and excessive leucine aminopeptidase (sigma chemical Co., U.S.A.), the liberated naphthylamine was made to undergo color development with first garnet (Sigma chemical Co., U.S.A.), followed by the measurement of the absorbance at a wavelength of 540 nm.
With respect to the NEP inhibition activity, the inhibitor was added to the reaction system as described above in such a manner as to give the final concentrations of 1, 3, 10, 30, 100, 300 and 1000 nM, an inhibition curve was prepared, and then the concentration at which 50% inhibition was achieved was taken as IC50.

The structures appear in SMILES notation.

Take `O=C(N[C@H]1Cc2ccc(-c3ccccc3)cc2[C@H]2CCC[C@@H](C(=O)O)N2C1=O)[C@@H](S)Cc1ccccc1` [Example E-6, [4S-[4α,7α(R*),12bβ]]-7-[(S)-2-Mercapto-3-phenylpropionylamino]-6-oxo-11-phenyl-1,2,3,4,6,7,8,12b-octahydropyrido[2,1-a][2]benzazepine-4-carboxylic acid]: the oral absorbability result in “in vivo” is “superior in oral absorbability to the comparative compound E-1”. Besides, the bioavailability in the series “in vivo” (10 mg/kg) worked out at 18.8%; in the series “in vivo” (30 mg/kg), 24.6%. The figures for the IC50 against ACE [1] and against NEP [2] were 0.01 µM and 0.028 µM, respectively.

As for `O=C(N[C@H]1Cc2sccc2[C@H]2CCC[C@@H](C(=O)O)N2C1=O)[C@@H](S)Cc1ccccc1` [Example B-3, [5S-[5α,8α(R*),11αβ]]-5-[[(S)-2-Mercapto-1-oxo-3-phenylpropyl]amino]-6-oxo-4,5,6,8,9,10,11,11a-octahydropyrido[1,2-a]thieno[3,2c]azepine-8-carboxylic acid], the concentration for half-maximal inhibition (IC50) on ACE [3] amounted to 0.016 µM; on NEP [4], 0.0086 µM.

On to `O=C(O)C1CCCC2c3sccc3CC(NC(=O)[C@@H](S)Cc3ccccc3)C(=O)N12` (stereo partly drawn) [Example B-8, 5-[(S)-2-Mercapto-1-oxo-3-phenylpropyl]amino-6-oxo-4,5,6,8,9,10,11,11a-octahydro[1,2-a]thieno-[2,3-c]azepine-8-carboxylic acid], for which the IC50 at ACE [3] was 0.09 µM; against NEP [4], 0.072 µM.

For the molecule `CCOC(=O)C1CCCC2c3sccc3CC(NC(=O)[C@H](Cc3ccccc3)SC(C)=O)C(=O)N12` (single isomer, unassigned) [Example B-7], the IC50 came to 0.06 µM at ACE [3] and 0.055 µM at NEP [4].

For the origin of these results see patent US5679671A, “Amino acid derivative” (Eisai Co., Ltd., priority 1993, dated 1997).
